Assay results: patent US20190093170A1, “USE OF TRANSLATIONAL PROFILING TO IDENTIFY TARGET MOLECULES FOR THERAPEUTIC TREATMENT” (THE REGENTS OF THE UNIVERSITY OF CALIFORNIA, priority 2013, published 2019)

Test system: PC3 human prostate cancer cells
Assay: RNA-seq mRNA abundance (part of ribosome profiling experiment);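 note: average poly(A) RNA-seq read density per codon over the coding sequence, excluding 15 initial and 5 final codons, mapped to hg19 transcripts, taken as mRNA abundance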
Type: cell-based
Conditions: for Rapamycin mRNA: 3-hour treatment with rapamycin (50 nM) in PC3 cells
Description: Cells were subsequently treated with cycloheximide (100 μg ml^−1; Sigma) and detergent lysis was performed in the dish. The lysate was treated with DNase and clarified, and a sample was taken for RNA-seq analysis. Lysates were subjected to ribosome footprinting by nuclease treatment. Ribosome-protected fragments were purified, and deep sequencing libraries were generated from these fragments, as well as from poly(A) mRNA purified from non-nuclease-treated lysates. These libraries were analyzed by sequencing on an Illumina GAII.
Ribosome footprint and RNA-seq sequencing reads were aligned against a library of transcripts from the UCSC Known Genes database GRCh37/hg19. The first 25 nucleotides of each read were aligned using Bowtie and this initial alignment was then extended to encompass the full fragment-derived portion of the sequencing read while excluding the linker sequence. Read density profiles were then constructed for the canonical transcript of each gene, using only reads with 0 or 1 total mismatches between the read sequence and the reference sequence, comprised of the transcript fragment followed by the linker sequence. Footprint reads were assigned to an A site nucleotide at position +15 to +17 of the alignment, based on the total fragment length; mRNA reads were assigned to the first nucleotide of the alignment. The average read density per codon was then computed for the coding sequence of each transcript, excluding the first 15 and last 5 codons, which can display atypical ribosome accumulation.
Average read density was used as a measure of mRNA abundance (RNA-seq reads) and of protein synthesis (ribosome profiling reads). For most analyses, genes were filtered to require at least 256 reads in the relevant RNA-seq samples. Translational efficiency was computed as the ratio of ribosome footprint read density to RNA-seq read density, scaled to normalize the translational efficiency of the median gene to 1.0 after excluding regulated genes (log 2 fold-change+1.5 after normalizing for the all-gene median). Changes in protein synthesis, mRNA abundance and translational efficiency were similarly computed as the ratio of read densities between different samples, normalized to give the median gene a ratio of 1.0. This normalization corrects for differences in the absolute number of sequencing reads obtained for different libraries.

CO[C@H]1C[C@@H]2CC[C@@H](C)[C@@](O)(O2)C(=O)C(=O)N2CCCC[C@H]2C(=O)O[C@H]([C@H](C)C[C@@H]2CC[C@@H](O)[C@H](OC)C2)CC(=O)[C@H](C)/C=C(\C)[C@@H](O)[C@@H](OC)C(=O)[C@H](C)C[C@H](C)/C=C/C=C/C=C/1C [Rapamycin, rapamycin]
Rapamycin mRNA (gene ACD): −0.96 | mRNA (gene ACTG1): 0.02 | mRNA (gene AGRN): 0.01 | mRNA (gene ALKBH7): 0.06 | mRNA (gene AP2A1): 0.09 | mRNA (gene ARD1A): −0.04 | mRNA (gene ATP5G2): 0.29 | Rapamycin mRNA (gene C17orf28): −0.44 | mRNA (gene C21orf66): −0.30 | Rapamycin mRNA (gene CCNA1): −0.51 | mRNA (gene CCNI): 0.29 | mRNA (gene CD44): 0.34 | mRNA (gene CIRBP): 0.14 | mRNA (gene CLPTM1): 0.07 | mRNA (gene COL6A2): −0.08 | mRNA (gene CRTAP): 0.29 | Rapamycin mRNA (gene DDX51): −0.24 | Rapamycin mRNA (gene DGCR2): −0.66 | mRNA (gene ECSIT): −0.04 | Rapamycin mRNA (gene EEF1A1): 0.46 | mRNA (gene EEF1A2): 0.03 | mRNA (gene EEF1D): 0.18 | mRNA (gene EEF1G): 0.21 | mRNA (gene EEF2): 0.39 | mRNA (gene EIF3H): 0.16 | mRNA (gene EIF3L): 0.28 | mRNA (gene EIF4B): 0.55 | mRNA (gene EVPL): −0.08 | mRNA (gene FAM83H): −0.17 | mRNA (gene FAM128B): 0.06 | mRNA (gene FASN): −0.37 | mRNA (gene GLTSCR2): 0.31 | mRNA (gene GNB2L1): 0.19 | Rapamycin mRNA (gene GTPBP3): −0.73 | mRNA (gene HNRNPA1): 0.18 | mRNA (gene HSPA8): −0.21 | mRNA (gene IMPDH2): 0.11 | mRNA (gene LAMA5): −0.32 | mRNA (gene LMF2): 0.22 | Rapamycin mRNA (gene MAPK6): 0.13 | Rapamycin mRNA (gene MAPKAPK2): −0.21 | mRNA (gene MTA1): 0.00 | mRNA (gene NCLN): −0.05 | Rapamycin mRNA (gene NFATC21P): −0.16 | Rapamycin mRNA (gene NR2F1): 0.05 | mRNA (gene PABPC1): 0.35 | mRNA (gene PABPC4): 0.24 | mRNA (gene PACS1): 0.07 | mRNA (gene PFDN5): 0.11 | mRNA (gene PGLS): 0.03 | mRNA (gene PGM1): 0.40 | mRNA (gene PNKP): −0.24 | Rapamycin mRNA (gene PRKD3): −0.22 | mRNA (gene PTGES2): −0.19 | mRNA (gene RABGGTB): −0.20 | mRNA (gene RPL3): 0.18 | mRNA (gene RPL4): 0.22 | mRNA (gene RPL7): 0.15 | mRNA (gene RPL7A): 0.17 | mRNA (gene RPL9): 0.16 | mRNA (gene RPL10): 0.09 | mRNA (gene RPL10A): 0.16 | mRNA (gene RPL11): 0.09 | mRNA (gene RPL12): 0.07 | mRNA (gene RPL13): 0.14 | mRNA (gene RPL13A): 0.15 | mRNA (gene RPL15): 0.11 | mRNA (gene RPL18A): 0.17 | mRNA (gene RPL19): 0.14 | mRNA (gene RPL21): 0.14 | mRNA (gene RPL22): 0.08 | mRNA (gene RPL24): 0.11 | mRNA (gene RPL26): 0.15 | mRNA (gene RPL27): 0.05 | mRNA (gene RPL27A): 0.06 | mRNA (gene RPL28): 0.24 | Rapamycin mRNA (gene RPL28): 0.64 | mRNA (gene RPL31): −0.02 | mRNA (gene RPL32): 0.22 | mRNA (gene RPL34): 0.11 | mRNA (gene RPL36A): 0.13 | mRNA (gene RPL37A): 0.08 | mRNA (gene RPL39): 0.17 | Rapamycin mRNA (gene RPL39): 0.30 | mRNA (gene RPL41): 0.04 | mRNA (gene RPLP0): 0.15 | mRNA (gene RPLP1): 0.28 | mRNA (gene RPLP2): 0.26 | mRNA (gene RPS2): 0.07 | mRNA (gene RPS3): 0.22 | mRNA (gene RPS3A): 0.22 | mRNA (gene RPS4X): 0.18 | mRNA (gene RPS5): 0.14 | mRNA (gene RPS7): 0.11 | mRNA (gene RPS9): 0.10 | mRNA (gene RPS12): 0.11 | mRNA (gene RPS13): 0.07 | mRNA (gene RPS14): 0.10 | mRNA (gene RPS15): −0.01 | mRNA (gene RPS15A): 0.07 | mRNA (gene RPS19): 0.15 | mRNA (gene RPS20): 0.18 | Rapamycin mRNA (gene RPS20): 0.14 | mRNA (gene RPS21): −0.01 | mRNA (gene RPS25): 0.04 | mRNA (gene RPS27): 0.10 | Rapamycin mRNA (gene RPS27): 0.07 | mRNA (gene RPS27A): 0.16 | mRNA (gene RPS28): 0.01 | Rapamycin mRNA (gene SDCCAG10): −0.19 | mRNA (gene SLC19A1): -0.36 | mRNA (gene TKT): 0.02 | mRNA (gene TPT1): 0.24 | mRNA (gene TSC2): −0.15 | mRNA (gene UBA52): 0.12 | Rapamycin mRNA (gene UBTD2): 0.19 | Rapamycin mRNA (gene UCHL5): −0.08 | Rapamycin mRNA (gene VHL): −0.23 | mRNA (gene VIM): 0.36 | mRNA (gene YB1): 0.11
